The target of assay [1] is T1, Cannabinoid receptor 1 (Homo sapiens, UniProt P21554). The experiment in a line: Displacement of radioligand from human CB1 receptor expressed in HEK293 cells at 10 uM. Type of assay: cell-based.
The target in a further assay is Cannabinoid receptor 2 (Homo sapiens, UniProt P34972). The assay is described as follows: Displacement of radioligand from human CB2 receptor expressed in HEK293 cells. Type of assay: cell-based.
The species named for a further assay is Homo sapiens. The experiment in a line: Selectivity ratio, Ki for human CB2 receptor to Ki for human CB1 receptor.
In assay [2] the target is T1, Cannabinoid receptor 1. The assay is described as follows: Displacement of radioligand from human CB1 receptor expressed in HEK293 cells. It is filed as cell-based.
Assay [3] addresses T1, Cannabinoid receptor 1. The assay is described as follows: Inverse agonist activity at human CB1 receptor expressed in HEK293 EBNA cells by [35S]GTPgammaS incorporation assay. It is filed as functional, cell-based. In general terms: Binding of GTPγS marks nucleotide exchange on a G protein.

T1 sequence (P21554 whole entry): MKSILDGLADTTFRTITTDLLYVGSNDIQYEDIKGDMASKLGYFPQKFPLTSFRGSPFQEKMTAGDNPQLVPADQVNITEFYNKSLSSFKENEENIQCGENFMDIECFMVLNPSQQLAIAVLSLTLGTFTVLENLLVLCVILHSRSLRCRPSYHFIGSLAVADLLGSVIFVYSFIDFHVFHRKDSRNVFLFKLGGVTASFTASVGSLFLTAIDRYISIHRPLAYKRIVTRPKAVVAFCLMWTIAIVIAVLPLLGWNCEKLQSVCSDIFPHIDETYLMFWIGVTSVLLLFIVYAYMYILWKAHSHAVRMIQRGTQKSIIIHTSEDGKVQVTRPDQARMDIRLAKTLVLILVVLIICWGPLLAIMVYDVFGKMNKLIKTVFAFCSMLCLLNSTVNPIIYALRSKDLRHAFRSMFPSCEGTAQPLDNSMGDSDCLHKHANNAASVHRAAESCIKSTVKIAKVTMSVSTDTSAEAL
Chain of Cannabinoid receptor 2 (P34972 whole entry): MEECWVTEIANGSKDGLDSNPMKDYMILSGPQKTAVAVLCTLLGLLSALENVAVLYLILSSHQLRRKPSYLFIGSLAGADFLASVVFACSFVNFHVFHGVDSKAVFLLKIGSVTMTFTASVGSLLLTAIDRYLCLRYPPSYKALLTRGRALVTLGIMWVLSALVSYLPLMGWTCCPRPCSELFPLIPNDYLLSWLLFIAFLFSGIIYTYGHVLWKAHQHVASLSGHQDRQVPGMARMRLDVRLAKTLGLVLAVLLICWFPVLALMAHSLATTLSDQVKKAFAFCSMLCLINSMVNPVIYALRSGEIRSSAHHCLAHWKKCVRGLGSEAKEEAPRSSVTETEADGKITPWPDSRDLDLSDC

As a reminder, the inhibition is the relative decrease from the control value, in per cent. Low readings indicate a weak effect, high ones a strong effect. `Cc1c(C(=O)NCc2ccccn2)oc2ccc(S(=O)(=O)N3CC(C)CC(C)C3)cc12` (stereo not drawn) displayed an inhibition at Cannabinoid receptor 1 [1] of 10%.

Usually Ki stands for a measure of affinity in units of concentration, obtained from inhibition or displacement. Low readings indicate higher affinity, high ones lower affinity. For `CCOc1ccccc1CNC(=O)c1oc2ccc(S(=O)(=O)N3CC(C)CC(C)C3)cc2c1C` (stereo not drawn), the values for the Ki on Cannabinoid receptor 2 and on Cannabinoid receptor 1 [2] were 9900 nM and 97 nM, respectively. The Ratio Ki in the assay listed under Homo sapiens worked out at 102. In addition, on Cannabinoid receptor 1 [1], the inhibition was determined as 96%.

Regarding `Cc1c(C(=O)N(C)Cc2ccccc2)oc2ccc(S(=O)(=O)N3CC(C)CC(C)C3)cc12` (stereo not drawn), the figures for the Ki at Cannabinoid receptor 2 and at Cannabinoid receptor 1 [2] were 6600 nM and 59 nM, respectively. The Ratio Ki in the assay listed under Homo sapiens came to 112. The same compound came in with an inhibition on Cannabinoid receptor 1 [1] of 93%.

On to `Cc1c(C(=O)NCc2ccc(F)cc2)oc2ccc(S(=O)(=O)N3CC(C)CC(C)C3)cc12` (stereo not drawn), for which the Ki amounted to 4000 nM at Cannabinoid receptor 2 and 62 nM on Cannabinoid receptor 1 [2]. Moreover, the Ratio Ki in the assay filed under Homo sapiens was determined as 65. On Cannabinoid receptor 1 [1], this compound had an inhibition of 95%.

For `Cc1c(C(=O)N(C)CCC#N)oc2ccc(S(=O)(=O)N3CC(C)CC(C)C3)cc12` (stereo not drawn), the inhibition at Cannabinoid receptor 1 [1] came to 50%.

On to `CCN(CC)C(=O)c1oc2ccc(S(=O)(=O)N3CC(C)CC(C)C3)cc2c1C` (stereo not drawn), for which the inhibition on Cannabinoid receptor 1 [1] turned out to be 89%.

As for `Cc1c(C(=O)NC2CC2)oc2ccc(S(=O)(=O)N3CC(C)CC(C)C3)cc12` (stereo not drawn), the inhibition at Cannabinoid receptor 1 [1] came to 83%.

In the case of `COc1ccc(Cl)cc1NC(=O)c1oc2ccc(S(=O)(=O)N3CC(C)CC(C)C3)cc2c1C` (stereo not drawn), the inhibition on Cannabinoid receptor 1 [1] was 12%.

The term EC50 denotes the concentration giving half of the maximal effect. Higher therefore signals a less potent agent. As to `CCN(Cc1ccccc1)C(=O)c1oc2ccc(S(=O)(=O)N3CC(C)CC(C)C3)cc2c1C` (stereo not drawn), the Ki on Cannabinoid receptor 2 was determined as 3100 nM; at Cannabinoid receptor 1 [2] it was 92 nM. In addition, the Ratio Ki in the assay listed under Homo sapiens was 34. The compound further registered an EC50 on Cannabinoid receptor 1 [3] of 435 nM. The inhibition at Cannabinoid receptor 1 [1] was 98%.

On to `Cc1c(C(=O)NCc2cccnc2)oc2ccc(S(=O)(=O)N3CC(C)CC(C)C3)cc12` (stereo not drawn), for which the inhibition on Cannabinoid receptor 1 [1] is 46%.

`CCN(CC)S(=O)(=O)c1ccc2oc(C(=O)N(C)Cc3ccccc3)c(C)c2c1` came in with an inhibition on Cannabinoid receptor 1 [1] of 11%.

Turning to `Cc1ccc(CNC(=O)c2oc3ccc(S(=O)(=O)N4CC(C)CC(C)C4)cc3c2C)cc1` (stereo not drawn), the inhibitory constant (Ki) at Cannabinoid receptor 2 is 19100 nM; at Cannabinoid receptor 1 [2], 79 nM. The Ratio Ki in the assay listed under Homo sapiens came out at 242. Besides, on Cannabinoid receptor 1 [1], the inhibition was 93%.

Regarding `Cc1c(C(=O)NC2CCCC2)oc2ccc(S(=O)(=O)N3CC(C)CC(C)C3)cc12` (stereo not drawn), the Ki at Cannabinoid receptor 2 is 7400 nM; at Cannabinoid receptor 1 [2], 90 nM. Further, the Ratio Ki in the assay filed under Homo sapiens is 82. This compound yielded an inhibition at Cannabinoid receptor 1 [1] of 95%.

As to `Cc1c(C(=O)Nc2ccccc2Cl)oc2ccc(S(=O)(=O)N3CC(C)CC(C)C3)cc12` (stereo not drawn), the inhibition at Cannabinoid receptor 1 [1] is 44%.

For `Cc1c(C(=O)N2CCCCCC2)oc2ccc(S(=O)(=O)N3CC(C)CC(C)C3)cc12` (stereo not drawn), the Ki on Cannabinoid receptor 2 stood at 4900 nM; on Cannabinoid receptor 1 [2], 193 nM. Further, in the assay filed under Homo sapiens, the Ratio Ki was found to be 25. Further, the inhibition on Cannabinoid receptor 1 [1] was 90%.

Consider `Cc1c(C(=O)N2CCN(C)CC2)oc2ccc(S(=O)(=O)N3CC(C)CC(C)C3)cc12` (stereo not drawn), for which, at Cannabinoid receptor 1 [1], the inhibition turned out to be 27%.

`Cc1c(C(=O)Nc2cccc(Cl)c2)oc2ccc(S(=O)(=O)N3CC(C)CC(C)C3)cc12` (stereo not drawn): at Cannabinoid receptor 1 [1], the inhibition came to 70%.

Regarding `COc1ccccc1CNC(=O)c1oc2ccc(S(=O)(=O)N3CC(C)CC(C)C3)cc2c1C` (stereo not drawn), the Ki at Cannabinoid receptor 2 was found to be 22800 nM; on Cannabinoid receptor 1 [2] it was 58 nM. The Ratio Ki in the assay listed under Homo sapiens was 393. Moreover, the inhibition on Cannabinoid receptor 1 [1] turned out to be 97%.

On Cannabinoid receptor 1 [1], `Cc1c(C(=O)N(C)CCc2ccccc2)oc2ccc(S(=O)(=O)N3CC(C)CC(C)C3)cc12` (stereo not drawn) returned an inhibition of 92%. The same compound returned a Ki at Cannabinoid receptor 1 [2] of 172 nM.

`Cc1c(C(=O)NCc2ccccc2)oc2ccc(S(=O)(=O)N3CC(C)CC(C)C3)cc12` (stereo not drawn): the results for the Ki at Cannabinoid receptor 2 and at Cannabinoid receptor 1 [2] were 6600 nM and 77 nM, respectively. Also, the Ratio Ki in the assay filed under Homo sapiens came to 86. This compound returned an inhibition at Cannabinoid receptor 1 [1] of 92%.

As to `CCN(CC)CCCNC(=O)c1oc2ccc(S(=O)(=O)N3CC(C)CC(C)C3)cc2c1C` (stereo not drawn), the inhibition on Cannabinoid receptor 1 [1] was < 1%.

With `Cc1c(C(=O)NC2CCCc3ccccc32)oc2ccc(S(=O)(=O)N3CC(C)CC(C)C3)cc12` (stereo not drawn), the Ki on Cannabinoid receptor 2 came to 22800 nM; at Cannabinoid receptor 1 [2] it was 5 nM. The Ratio Ki in the assay listed under Homo sapiens came out at 4560. Further, it took 72.4 nM to reach a half-maximal effect on Cannabinoid receptor 1 [3] (EC50). At Cannabinoid receptor 1 [1], this compound returned an inhibition of 96%.

`Cc1c(C(=O)N(C)Cc2ccccc2)oc2ccc(S(=O)(=O)N3CCCC3)cc12` displayed an inhibition on Cannabinoid receptor 1 [1] of 20%.

Take `Cc1c(C(=O)NC2CCCCC2)oc2ccc(S(=O)(=O)N3CC(C)CC(C)C3)cc12` (stereo not drawn): the Ki was 17400 nM at Cannabinoid receptor 2 and 108 nM on Cannabinoid receptor 1 [2]. In addition, the Ratio Ki in the assay filed under Homo sapiens is 161. Besides, the inhibition on Cannabinoid receptor 1 [1] is 95%.

Consider `Cc1c(C(=O)NCc2ccccc2Cl)oc2ccc(S(=O)(=O)N3CC(C)CC(C)C3)cc12` (stereo not drawn), for which the Ki on Cannabinoid receptor 2 was determined as 4800 nM; on Cannabinoid receptor 1 [2], 58 nM. The Ratio Ki in the assay listed under Homo sapiens stood at 83. Besides, the inhibition on Cannabinoid receptor 1 [1] was determined as 95%.

As to `CCCCNC(=O)c1oc2ccc(S(=O)(=O)N3CC(C)CC(C)C3)cc2c1C` (stereo not drawn), the results for the Ki at Cannabinoid receptor 2 and on Cannabinoid receptor 1 [2] were 9400 nM and 94 nM, respectively. The Ratio Ki in the assay listed under Homo sapiens amounted to 100. On Cannabinoid receptor 1 [1], the inhibition came to 92%.

Consider `Cc1c(C(=O)NCCc2ccccc2)oc2ccc(S(=O)(=O)N3CC(C)CC(C)C3)cc12` (stereo not drawn), for which the Ki was 6000 nM at Cannabinoid receptor 2 and 198 nM at Cannabinoid receptor 1 [2]. Besides, the Ratio Ki in the assay filed under Homo sapiens worked out at 30. On Cannabinoid receptor 1 [1], this compound came in with an inhibition of 92%.

Compound `Cc1cccc(NC(=O)c2oc3ccc(S(=O)(=O)N4CC(C)CC(C)C4)cc3c2C)c1C` (stereo not drawn) came in with an inhibition at Cannabinoid receptor 1 [1] of 84%.

The values are drawn from ChEMBL document CHEMBL1142334, “Discovery of a novel class of selective human CB1 inverse agonists” (Bioorg Med Chem Lett, 2008).
